Source: patent US20070074295A1 (priority 2000, published 2007)

Tests used:
[1] = tested on: 5-HT2A receptors; assay: 5-HT2A receptor binding (3H-ketanserin autoradiography) in prefrontal cortex after chronic PCP; format: in vivo, rat; details: chronic PCP treatment
Source text: In order to further validate this chronic PCP model, the effects of this treatment paradigm on 5-HT2A receptors within the prefrontal cortex was investigated. Chronic PCP treatment produced a significant decrease in 5-HT2A receptors in layer II & III (controls 158±6, PCP 139±4 fmolmg^−1) and layers V & VI (controls 82±4, PCP 69±3 fmolmg^−1). This is entirely consistent with post mortem studies of 5-HT2A receptor binding from schizophrenic patents (Laurelle, M. et al).
5-HT2A receptor binding: Sections from the level of the prefrontal cortex were preincubated for two consecutive washes at room temperature in 50mM Tris HCl buffer pH 7.4 to remove endogenous ligand. Total binding was defined using 0.71 nM (Wolkin, A. et al) ^3H-ketanserin in the presence of 1μM prazozin and 1μM tetrabenazine (to block non 5-HT2A binding). Non-specific binding was defined using 50nM spiperone. Sections were incubated with the appropriate ligand solution for 1 hour at room temperature then washed twice for 10 minutes in ice cold buffer before being rinsed in ice cold water and rapidly air dried. The sections were then exposed to film (Biomax MR, Kodak) with previously calibrated (Wolkin, A. et al) ^3H-standards.
Autoradiograms were analysed using MCID densitometry system. Results were statistically analysed using a one-way ANOVA followed by a student Newman-Keuls post hoc test.

[2] = tested on: freely moving rats; assay: Induction and maintenance of PCP-induced hypofunction: LCGU by 14C-2-deoxyglucose autoradiography; format: in vivo, rat
Description: An initial treatment period of intraperitoneal (i.p.) injections once daily for 5 days was carried out, followed by a maintenance schedule of i.p. injections three times weekly (every 60 hours) for a further 21 days.
Intermittent exposure to PCP during the maintenance phase of the model was favoured due to the long half life of the drug within brain tissue (Misra, A. L. et al). […] As a comparison to the present model, the inventors also investigated the effect of previously published subchronic treatment with PCP (Jentsch, J. D. et al) using quantitative C-2-deoxyglucose autoradiography (Sokoloff, L.)
Local cerebral glucose utilisation (LCGU) was measured using an adaptation of the original method for freely moving rats (Crane, A. M. et al) 72 hours after the initial induction phase (day 8) and 72 hours after the induction phase followed by the maintenance phase (day 29). LCGU was measured 72 hours after the last exposure to PCP so the effects of PCP on LCGU would be independent of the acute effects of the drug. […] Thus, using a dose of 2.59 mgkg^−1 the inventors had established a novel treatment paradigm which mimics the findings of human imaging studies in schizophrenic patients.

c1ccc(C2(N3CCCCC3)CCCCC2)cc1 [PCP, phencyclidine]
5-HT2A receptors, prefrontal cortex layer II & III [1]: 139±4 fmolmg^−1 | 5-HT2A receptors, prefrontal cortex layers V & VI [1]: 69±3 fmolmg^−1 | maintenance of metabolic hypofunction by second phase of the model ([2]; 0.86 mgkg^−1 PCP): not, however, maintained | LCGU, Au layer I ([2]; 0.86 mgkg^−1 PCP i.p., day 8): 127 ± 2 μmol/100 g/min | LCGU, Au layers II, III&IV ([2]; 0.86 mgkg^−1 PCP i.p., day 8): 152 ± 3 μmol/100 g/min | LCGU, Au layers V & VI ([2]; 0.86 mgkg^−1 PCP i.p., day 8): 114 ± 4 μmol/100 g/min | LCGU, AuD layer I ([2]; 0.86 mgkg^−1 PCP i.p., day 8): 126 ± 3 μmol/100 g/min | LCGU, AuD layers II, III&IV ([2]; 0.86 mgkg^−1 PCP i.p., day 8): 151 ± 4 μmol/100 g/min | LCGU, AuD layers V & VI ([2]; 0.86 mgkg^−1 PCP i.p., day 8): 106 ± 2 μmol/100 g/min | LCGU, DLL ([2]; 0.86 mgkg^−1 PCP i.p., day 8): 91 ± 4 μmol/100 g/min | LCGU, MD ([2]; 0.86 mgkg^−1 PCP i.p., day 8): 112 ± 4 μmol/100 g/min | LCGU, PrL layer I ([2]; 0.86 mgkg^−1 PCP i.p., day 8): 132 ± 6 μmol/100 g/min | LCGU, PrL layers II & III ([2]; 0.86 mgkg^−1 PCP i.p., day 8): 150 ± 7 μmol/100 g/min | LCGU, PrL layers V & VI ([2]; 0.86 mgkg^−1 PCP i.p., day 8): 115 ± 3 μmol/100 g/min | LCGU, Rt ([2]; 0.86 mgkg^−1 PCP i.p., day 8): 106 ± 2 μmol/100 g/min | LCGU, VLL ([2]; 0.86 mgkg^−1 PCP i.p., day 8): 98 ± 5 μmol/100 g/min | LCGU, cochlear nucleus ([2]; 0.86 mgkg^−1 PCP i.p., day 8): 107 ± 3 μmol/100 g/min | LCGU, mO layer ([2]; 0.86 mgkg^−1 PCP i.p., day 8): 110 ± 2 μmol/100 g/min | LCGU, mO layers II & III ([2]; 0.86 mgkg^−1 PCP i.p., day 8): 127 ± 2 μmol/100 g/min | LCGU, mO layers V & VI ([2]; 0.86 mgkg^−1 PCP i.p., day 8): 129 ± 5 μmol/100 g/min | LCGU, Au layer I ([2]; 0.86 mgkg^−1 PCP i.p., day 29): 167 ± 14 μmol/100 g/min | LCGU, Au layers II, III&IV ([2]; 0.86 mgkg^−1 PCP i.p., day 29): 189 ± 12 μmol/100 g/min | LCGU, Au layers V & VI ([2]; 0.86 mgkg^−1 PCP i.p., day 29): 137 ± 10 μmol/100 g/min | LCGU, AuD layer I ([2]; 0.86 mgkg^−1 PCP i.p., day 29): 159 ± 11 μmol/100 g/min | LCGU, AuD layers II, III&IV ([2]; 0.86 mgkg^−1 PCP i.p., day 29): 178 ± 10 μmol/100 g/min | LCGU, AuD layers V & VI ([2]; 0.86 mgkg^−1 PCP i.p., day 29): 128 ± 9 μmol/100 g/min | LCGU, DLL ([2]; 0.86 mgkg^−1 PCP i.p., day 29): 116 ± 8 μmol/100 g/min | LCGU, MD ([2]; 0.86 mgkg^−1 PCP i.p., day 29): 122 ± 5 μmol/100 g/min | LCGU, PrL layer I ([2]; 0.86 mgkg^−1 PCP i.p., day 29): 133 ± 2 μmol/100 g/min | LCGU, PrL layers II & III ([2]; 0.86 mgkg^−1 PCP i.p., day 29): 149 ± 2 μmol/100 g/min | LCGU, PrL layers V & VI ([2]; 0.86 mgkg^−1 PCP i.p., day 29): 112 ± 3 μmol/100 g/min | LCGU, Rt ([2]; 0.86 mgkg^−1 PCP i.p., day 29): 108 ± 4 μmol/100 g/min | LCGU, VLL ([2]; 0.86 mgkg^−1 PCP i.p., day 29): 118 ± 13 μmol/100 g/min | LCGU, cochlear nucleus ([2]; 0.86 mgkg^−1 PCP i.p., day 29): 117 ± 2 μmol/100 g/min | LCGU, mO layer ([2]; 0.86 mgkg^−1 PCP i.p., day 29): 122 ± 3 μmol/100 g/min | LCGU, mO layers II & III ([2]; 0.86 mgkg^−1 PCP i.p., day 29): 135 ± 4 μmol/100 g/min | LCGU, mO layers V & VI ([2]; 0.86 mgkg^−1 PCP i.p., day 29): 136 ± 3 μmol/100 g/min | LCGU, Au layer I ([2]; 2.58 mgkg^−1 PCP i.p., day 8): 135 ± 3 μmol/100 g/min | LCGU, Au layers II, III&IV ([2]; 2.58 mgkg^−1 PCP i.p., day 8): 166 ± 5 μmol/100 g/min | LCGU, Au layers V & VI ([2]; 2.58 mgkg^−1 PCP i.p., day 8): 120 ± 4 μmol/100 g/min | LCGU, AuD layer I ([2]; 2.58 mgkg^−1 PCP i.p., day 8): 135 ± 3 μmol/100 g/min | LCGU, AuD layers II, III&IV ([2]; 2.58 mgkg^−1 PCP i.p., day 8): 151 ± 4 μmol/100 g/min | LCGU, AuD layers V & VI ([2]; 2.58 mgkg^−1 PCP i.p., day 8): 104 ± 2 μmol/100 g/min | LCGU, DLL ([2]; 2.58 mgkg^−1 PCP i.p., day 8): 83 ± 4 μmol/100 g/min | LCGU, MD ([2]; 2.58 mgkg^−1 PCP i.p., day 8): 115 ± 4 μmol/100 g/min | LCGU, PrL layer I ([2]; 2.58 mgkg^−1 PCP i.p., day 8): 104 ± 2 μmol/100 g/min | LCGU, PrL layers II & III ([2]; 2.58 mgkg^−1 PCP i.p., day 8): 133 ± 2 μmol/100 g/min | LCGU, PrL layers V & VI ([2]; 2.58 mgkg^−1 PCP i.p., day 8): 96 ± 3 μmol/100 g/min | LCGU, Rt ([2]; 2.58 mgkg^−1 PCP i.p., day 8): 86 ± 2 μmol/100 g/min | LCGU, VLL ([2]; 2.58 mgkg^−1 PCP i.p., day 8): 93 ± 3 μmol/100 g/min | LCGU, cochlear nucleus ([2]; 2.58 mgkg^−1 PCP i.p., day 8): 98 ± 3 μmol/100 g/min | LCGU, mO layer ([2]; 2.58 mgkg^−1 PCP i.p., day 8): 105 ± 4 μmol/100 g/min | LCGU, mO layers II & III ([2]; 2.58 mgkg^−1 PCP i.p., day 8): 127 ± 5 μmol/100 g/min | LCGU, mO layers V & VI ([2]; 2.58 mgkg^−1 PCP i.p., day 8): 115 ± 1 μmol/100 g/min | LCGU, Au layer I ([2]; 2.58 mgkg^−1 PCP i.p., day 29): 137 ± 5 μmol/100 g/min | LCGU, Au layers II, III&IV ([2]; 2.58 mgkg^−1 PCP i.p., day 29): 162 ± 6 μmol/100 g/min | LCGU, Au layers V & VI ([2]; 2.58 mgkg^−1 PCP i.p., day 29): 115 ± 3 μmol/100 g/min | LCGU, AuD layer I ([2]; 2.58 mgkg^−1 PCP i.p., day 29): 130 ± 7 μmol/100 g/min | LCGU, AuD layers II, III&IV ([2]; 2.58 mgkg^−1 PCP i.p., day 29): 146 ± 7 μmol/100 g/min | LCGU, AuD layers V & VI ([2]; 2.58 mgkg^−1 PCP i.p., day 29): 101 ± 4 μmol/100 g/min | LCGU, DLL ([2]; 2.58 mgkg^−1 PCP i.p., day 29): 96 ± 5 μmol/100 g/min | LCGU, MD ([2]; 2.58 mgkg^−1 PCP i.p., day 29): 116 ± 3 μmol/100 g/min | LCGU, PrL layer I ([2]; 2.58 mgkg^−1 PCP i.p., day 29): 107 ± 4 μmol/100 g/min | LCGU, PrL layers II & III ([2]; 2.58 mgkg^−1 PCP i.p., day 29): 116 ± 1 μmol/100 g/min | LCGU, PrL layers V & VI ([2]; 2.58 mgkg^−1 PCP i.p., day 29): 89 ± 2 μmol/100 g/min | LCGU, Rt ([2]; 2.58 mgkg^−1 PCP i.p., day 29): 89 ± 2 μmol/100 g/min | LCGU, VLL ([2]; 2.58 mgkg^−1 PCP i.p., day 29): 99 ± 4 μmol/100 g/min | LCGU, cochlear nucleus ([2]; 2.58 mgkg^−1 PCP i.p., day 29): 94 ± 4 μmol/100 g/min | LCGU, mO layer ([2]; 2.58 mgkg^−1 PCP i.p., day 29): 108 ± 5 μmol/100 g/min | LCGU, mO layers II & III ([2]; 2.58 mgkg^−1 PCP i.p., day 29): 124 ± 5 μmol/100 g/min | LCGU, mO layers V & VI ([2]; 2.58 mgkg^−1 PCP i.p., day 29): 111 ± 3 μmol/100 g/min | LCGU in medial orbital cortex, prelimbic cortex, auditory pathway, reticular nucleus of the thalamus ([2]; 2.58 mgkg^−1 PCP, after both phases of the model): induced a metabolic hypofunction | effect on LCGU within any brain area ([2]; subchronic PCP 5 mgkg^−1 twice daily for seven days (data not shown)): did not produce any significant effect
